From ChEMBL document CHEMBL5338747, “Discovery of Quaternized Pyridine-Thiazole-Pleuromutilin Derivatives with Broad-Spectrum Antibacterial and Potent Anti-MRSA Activity” (J Med Chem, 2023)

How the values were obtained:
Format in all cases: functional
[1] = tested on: Staphylococcus aureus; assay: Antibacterial activity against methicillin-resistant Staphylococcus aureus ATCC 33591 infected in ip dosed Kunming mouse assessed as protection against bacterial infection administered for 7 days starting from 1 hr post-infection
[2] = tested on: Staphylococcus aureus; assay: Disruption of biofilm formation in methicillin-resistant Staphylococcus aureus ATCC 33591 assessed as inhibition of biofilm formation at 4XMIC measured after 24 hrs by crystal violet staining based analysis
[3] = tested on: Escherichia coli; assay: Disruption of biofilm formation in Escherichia coli ATCC 25922 assessed as inhibition of biofilm formation at MIC measured after 24 hrs by crystal violet staining based analysis
[4] = tested on: Staphylococcus aureus; assay: Antibacterial activity against methicillin-resistant Staphylococcus aureus ATCC 33591 infected in Kunming mouse assessed as animal survival rate at 10 mg/kg, ip for 7 days starting from 1 hr post-infection; settings: ATCC 33591, 168 h, time 7 day

`C=C[C@]1(C)C[C@@H](OC(=O)CSc2nc(-c3cc[n+](Cc4ccc(C)cc4)cc3)cs2)[C@]2(C)[C@H](C)CC[C@]3(CCC(=O)[C@H]32)[C@@H](C)[C@@H]1O.[Br-]` was tested, and the ED50 ([1]; ATCC 33591, 168 h, time 7 day) was 4.94 mg/kg, the Activity ([1]; time 7.0 day) was “Dose-Dependent Effect” and the “inhibition (INH)” value [2] was 86.43%. For the same molecule, the “inhibition (INH)” value [3] was 59.04% and the survival at 10 mg/kg [4] was 71.4%.
